Assay results as given in patent US20250051375A1, “ANTI-HIV COMPOUNDS” (Gilead Sciences, Inc., priority 2023, published 2025).
In brackets after ≈: the same amount, converted by molar mass.

Tests used:
[1] = Solubility in FaSSIF; settings: 23 °C, pH 6.5, fassif, thermodynamic from solid
Procedure: Buffer Preparation: Fasted State Simulated Intestinal Fluid (FaSSIF): Simulated Intestinal Fluid (SIF) powder containing a complex of Taurocholate and Lecithin (4:1 molar ratio) was obtained from Biorelevant. 0.056 g of SIF powder was added to 25 mL of buffer, adjusted to pH 6.5, containing 0.011 g of NaOH (pellets), 0.099 g of NaH2PO4 (monohydrate), and 0.155 g of NaCl. The buffer was prepared with HPLC H2O. The SIE powder was stirred until completely dissolved and allowed to stand for 2 hours.
Test Compounds: Each test compound was placed in a vial containing approximately 7 mg of material. Aliquots were weighed out for each assay media at each time point to be analyzed. The buffer was added to each vial such that the final dose concentration of 5 mg/mL was achieved. Samples were then vortexed for 5-10 seconds.
The plate was sealed with a pierceable heat seal and analyzed by HPLC-UV.

[2] = molecular target: bovine intestinal alkaline phosphatase (Bos taurus (Bovine), UniProt P19111); assay: BiALP: conversion by bovine intestinal alkaline phosphatase; type: in vitro ADME; settings: 2 μM substrate, 100 ng/mL iALP, Tris pH 7.8, 37° C., 60 minutes; for [Intermediate A] or [Amprenavir]: parent formed
bovine intestinal alkaline phosphatase, sequence (P19111 20-506): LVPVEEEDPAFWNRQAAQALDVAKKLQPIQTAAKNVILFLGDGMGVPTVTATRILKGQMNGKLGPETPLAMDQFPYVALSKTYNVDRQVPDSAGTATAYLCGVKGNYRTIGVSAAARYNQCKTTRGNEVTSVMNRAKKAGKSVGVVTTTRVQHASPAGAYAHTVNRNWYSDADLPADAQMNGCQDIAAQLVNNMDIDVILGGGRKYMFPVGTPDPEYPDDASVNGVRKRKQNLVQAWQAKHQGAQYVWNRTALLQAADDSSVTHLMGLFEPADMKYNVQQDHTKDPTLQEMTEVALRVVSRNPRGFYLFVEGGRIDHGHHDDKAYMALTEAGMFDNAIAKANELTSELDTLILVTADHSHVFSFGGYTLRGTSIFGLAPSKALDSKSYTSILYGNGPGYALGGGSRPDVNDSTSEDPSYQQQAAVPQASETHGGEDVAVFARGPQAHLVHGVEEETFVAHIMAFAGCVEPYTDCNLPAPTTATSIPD
Procedure: Fosamprenavir and its parent compound (amprenavir) were purchased from Millipore Sigma (St. Louis, MO). Test compounds, Intermediate A, fosamprenavir, and amprenavir were each separately dissolved in dimethyl sulfoxide (DMSO) at a concentration of 10 mM to form stock solutions.
All other chemicals were purchased from Millipore Sigma (St. Louis, MO) and Thermo Fisher Scientific (Waltham, MA). […] Internal Standard/Quench (IS/Q) was 100 nM labetalol in 99:1 (v/v) acetonitrile/formic acid.
Incubations were performed with Tris buffer alone (0.1 M Tris-HCl pH 7.8 containing 1 mM MgCl2 and 1 mM ZnCl2) or the same Tris buffer further containing 100 ng/mL iALP (0.01 units/mL). Triplicate 100 μL aliquots of Tris buffer±iALP were warmed to 37° C. and the reactions were initiated by the addition of the test compound or fosamprenavir to obtain final substrate concentrations of 2 μM. Incubations were then continued at 37° C. At 60 minutes, reactions were terminated by the addition of 200 μl of IS/Q and mixed by pipette. […] Aliquots (150 μL) of the supernatants were transferred to fresh plates containing 150 μL of water. Aliquots (15 μL) of the diluted supernatants were analyzed by mass spectrometry as described below.
Quantification of the test compounds and fosamprenavir was performed by analyte/internal standard peak area ratios (PARs) with comparison to 2 μM Intermediate A and amprenavir, respectively. The LC instrumentation consisted of a Thermo Scientific Vanquish pump and a Thermo Hypersil Gold column (1.9 μm particle size, 2.1×50 mm). […] The MS instrument was a Thermo Q Exactive™ Plus operating in positive ionization mode with mass tolerance of 5 ppm and calibrated on a twice weekly basis.

[3] = tested on: HIV-1 IIIB strain; assay: MT-4 HIV Wild Type Virus Infection Assay (IIIB Virus); type: cell-based; settings: MT-4 cells acutely infected with HIV-1 IIIB, 5 day incubation, Cell-titer glo
Procedure: Test compounds and controls were serially diluted and spotted in replicate into 384 well black assay plates via acoustic transfer (Echo). MT-4 cells were grown in batch, centrifuged and resuspended into fresh CCM media (RPMI w/10% FBS, 1% PS) at 2×10^6 cells/ml. MT-4 cells were acutely infected with HIV-1 IIIB strain. The size of each infection mix was scaled by the number of sample plates to be tested. Each infection mix was transferred into 5 mL closed tubes and nutated rapidly on a shaker at 37° C. incubator for 1 hour. The infection mixes were then diluted 25× in fresh cell culture media and then added to assay plates at 40 μL per well using a ViaFlo 384 pipettor. After 5 day incubation at 37° C. in a CO2 incubator, assay plates were processed with Cell-titer glo reagent using a ViaFlo 384 with an addition/mixing program. Plates were read immediately on Envision reader. Assay signals were plotted and dose response curves generated to determine individual compound EC50s.

[4] = PBS Stability Assay; type: physicochemical; settings: phosphate buffered saline pH 7.4; for PBS T½: 2 μM; for half-life at 2 μM: buffer, pH 7.4, 2 μM, read-out: PBS T½
Procedure: Reagents. Stock solutions of test compounds in dimethyl sulfoxide (DMSO) having a final concentration of 10 mM were prepared and used in all experiments. Sekisui XenoTech (Kansas City, KS) provided pooled intestinal S9 fractions. All other chemicals were purchased from Sigma-Aldrich (St. Louis, MO) or VWR (West Chester, PA). Internal Standard/Quench (IS/Q) used to stop reactions was 100 nM labetalol in (by volume) formic acid (1%) and acetonitrile (99%).
PBS Stability Assay: For each test compound, an aliquot of the test compound was added to phosphate buffered saline (137 mM NaCl, 2.7 mM KCl, 10 mM phosphate buffer), pH 7.4. The incubation was initiated by the addition of the test compound to PBS to a final concentration of 2 μM. At 0, 10, 20, 30, 60 and 120 min, 25 μL aliquots of the incubation mixture were transferred to plates containing 225 μl of IS/Q solution. After quenching, the plates were centrifuged at 3000×g for 30 minutes. 150 μL aliquots of each supernatant were transferred to new plates and 150 μL water was added. Aliquots (10 μL) of the prepared samples were analyzed on a Thermo Q-Exactive mass spectrometer as described below.
Liquid Chromatography-Mass Spectrometry: Quantification of test compounds and control substrate was performed by analyte/internal standard peak area ratio (PAR) values measured on a Thermo Q-Exactive mass spectrometer coupled to a Dionex UltiMate 3000 HPLC with a Leap Technologies HTC PAL autosampler. The column used for analysis was a Thermo Scientific Hypersil GOLD (1.9 μm particle size, 50×2.1 mm). Mobile phase A consisted of 0.1% (v/v) formic acid in water. Mobile phase B consisted of 0.1% (v/v) formic acid in acetonitrile. Elution of analytes was achieved by a series of linear gradients varying the proportions of A and B. The mass spectrometer was calibrated on a weekly basis and mass tolerance of 5 ppm was used.
Data Analysis. Metabolic stabilities were determined by measuring the rates of disappearance of test compound and positive control substrate. Data (% of substrate remaining) were plotted on a semi-log scale and fitted using an exponential decline model:
where • Ct% of substrate remaining at time=t • C0% of substrate remaining at time=0 • t time • T½ half-life • The Half-life (T½) is determined by the following equation:
[formula] • Assuming a first-order reaction, the slope (k) is extrapolated from the aforementioned plotted data.

[5] = Human immunodeficiency virus 1, IIIB, MT4, 120 h

SMILES	solubility at 2 h [1] [µg/mL]	[Compound] [2] [nM]	biALP Intermediate A or [Amprenavir] (% of total) [2]	[Intermediate A] or [Amprenavir] [2] [nM]	EC50 [3, 5] [nM]	PBS T½ [4] [h]	half-life at 2 μM [4] [h]	EC50 [3] [nM]
COC(=O)N[C@H](C(=O)N[C@@H](Cc1ccc(C#Cc2cnc(N3CC4CCC(C3)N4C3COC3)nc2)cc1)[C@H](CN(Cc1c(F)cc(-c2ccn(C(F)F)n2)cc1F)NC(=O)[C@@H](NC(=O)OC)C(C)(C)C(F)(F)F)OC(=O)OCOC(=O)CC(C)(C)c1c(CC(=O)NCCS(=O)(=O)O)cc(C)cc1OP(=O)(O)O)C(C)(C)C(F)(F)F [Example 21]	4340 (≈ 2610 µM)	1281.9	44.7 % of total	1034.6	3.6	13.2		
COC(=O)N[C@H](C(=O)N[C@@H](Cc1ccc(C#Cc2cnc(N3CC4CCC(C3)N4C3COC3)nc2)cc1)[C@H](CN(Cc1c(F)cc(-c2ccn(C(F)F)n2)cc1F)NC(=O)[C@@H](NC(=O)OC)C(C)(C)C(F)(F)F)OC(=O)OCOC(=O)CC(C)(C)c1c(CC(=O)NCC(=O)NS(C)(=O)=O)cc(C)cc1OP(=O)(O)O)C(C)(C)C(F)(F)F [Example 22]	4720 (≈ 2790 µM)	1221.6	54.6 % of total	1468.7	9.9		6.22	
COC(=O)N[C@H](C(=O)N[C@@H](Cc1ccc(C#Cc2cnc(N3CC4CCC(C3)N4C3COC3)nc2)cc1)[C@H](CN(Cc1c(F)cc(-c2ccn(C(F)F)n2)cc1F)NC(=O)[C@@H](NC(=O)OC)C(C)(C)C(F)(F)F)OC(=O)CC(C)(C)c1c(CC(=O)NCCCS(=O)(=O)O)cc(C)cc1OP(=O)(O)O)C(C)(C)C(F)(F)F [Example 25]	2410 (≈ 1500 µM)	2023.7			62.7		1.37	
COC(=O)N[C@H](C(=O)N[C@@H](Cc1ccc(C#Cc2cnc(N3CC4CCC(C3)N4C3COC3)nc2)cc1)[C@H](CN(Cc1c(F)cc(-c2ccn(C(F)F)n2)cc1F)NC(=O)[C@@H](NC(=O)OC)C(C)(C)C(F)(F)F)OC(=O)CC(C)(C)c1c(CC(=O)NCCC(=O)O)cc(C)cc1OP(=O)(O)O)C(C)(C)C(F)(F)F [Example 26]	1440 (≈ 923 µM)	1764			96.9		2.44	
COC(=O)N[C@H](C(=O)N[C@@H](Cc1ccc(C#Cc2cnc(N3CC4CCC(C3)N4C3COC3)nc2)cc1)[C@H](CN(Cc1c(F)cc(-c2ccn(C(F)F)n2)cc1F)NC(=O)[C@@H](NC(=O)OC)C(C)(C)C(F)(F)F)OC(=O)CC(C)(C)c1c(CC(=O)NC(CP(=O)(O)O)C(=O)O)cc(C)cc1OP(=O)(O)O)C(C)(C)C(F)(F)F (stereo partly drawn) [Example 34]	4810 (≈ 2940 µM)	2238.2			179		5.08	
COC(=O)N[C@H](C(=O)N[C@@H](Cc1ccc(C#Cc2cnc(N3CC4CCC(C3)N4C3COC3)nc2)cc1)[C@H](CN(Cc1c(F)cc(-c2ccn(C(F)F)n2)cc1F)NC(=O)[C@@H](NC(=O)OC)C(C)(C)C(F)(F)F)OC(=O)CC(C)(C)c1c(CC(=O)N(CCCC(=O)O)CCC(=O)O)cc(C)cc1OP(=O)(O)O)C(C)(C)C(F)(F)F [Example 36]	4260 (≈ 2590 µM)	1383.3			97.4		10.9	
COC(=O)N[C@H](C(=O)N[C@@H](Cc1ccc(C#Cc2cnc(N3CC4CCC(C3)N4C3COC3)nc2)cc1)[C@H](CN(Cc1c(F)cc(-c2ccn(C(F)F)n2)cc1F)NC(=O)[C@@H](NC(=O)OC)C(C)(C)C(F)(F)F)OC(=O)CC(C)(C)c1c(CC(=O)NC(CCCC(=O)O)CC(=O)O)cc(C)cc1OP(=O)(O)O)C(C)(C)C(F)(F)F (stereo partly drawn) [Example 37]	4460 (≈ 2720 µM)	1518.9			41.8		7.32	
COC(=O)N[C@H](C(=O)N[C@@H](Cc1ccc(C#Cc2cnc(N3CC4CCC(C3)N4C3COC3)nc2)cc1)[C@H](CN(Cc1c(F)cc(-c2ccn(C(F)F)n2)cc1F)NC(=O)[C@@H](NC(=O)OC)C(C)(C)C(F)(F)F)OC(=O)CC(C)(C)c1c(CC(=O)NC(CCCC(=O)O)C(=O)O)cc(C)cc1OP(=O)(O)O)C(C)(C)C(F)(F)F (stereo partly drawn) [Example 42]	4020 (≈ 2470 µM)	1335				6.025		49.1
COC(=O)N[C@H](C(=O)N[C@@H](Cc1ccc(C#Cc2cnc(N3CC4CCC(C3)N4C3COC3)nc2)cc1)[C@H](CN(Cc1c(F)cc(-c2ccn(C(F)F)n2)cc1F)NC(=O)[C@@H](NC(=O)OC)C(C)(C)C(F)(F)F)OC(=O)CC(C)(C)c1c(CC(=O)NC(CC(=O)O)CC(=O)O)cc(C)cc1OP(=O)(O)O)C(C)(C)C(F)(F)F [Example 43]	1920 (≈ 1190 µM)	1661.5			85.9		4.82	
COC(=O)N[C@H](C(=O)N[C@@H](Cc1ccc(C#Cc2cnc(N3CC4CCC(C3)N4C3COC3)nc2)cc1)[C@H](CN(Cc1c(F)cc(-c2ccn(C(F)F)n2)cc1F)NC(=O)[C@@H](NC(=O)OC)C(C)(C)C(F)(F)F)OC(=O)CC(C)(C)c1c(CC(=O)N(CCC(=O)O)[C@@H](CCC(=O)O)C(=O)O)cc(C)cc1OP(=O)(O)O)C(C)(C)C(F)(F)F [Example 44]	4550 (≈ 2700 µM)	1835.9			528		4.67	
COC(=O)N[C@H](C(=O)N[C@@H](Cc1ccc(C#Cc2cnc(N3CC4CCC(C3)N4C3COC3)nc2)cc1)[C@H](CN(Cc1c(F)cc(-c2ccn(C(F)F)n2)cc1F)NC(=O)[C@@H](NC(=O)OC)C(C)(C)C(F)(F)F)OC(=O)CC(C)(C)c1c(CC(=O)N[C@@H](Cc2c[nH]c3ccccc23)C(=O)O)cc(C)cc1OP(=O)(O)O)C(C)(C)C(F)(F)F [Example 48]	910 (≈ 545 µM)	2071.6			201		4.76	
